Our source for the AFI values is ChEMBL document CHEMBL3044729, “Quantitative structure-activity relationships of pine weevil antifeedants, a multivariate approach” (2007).

In the assay the test system is Hylobius abietis. In words: Antifeedant activity against Hylobius abietis (pine weevil ) in compound pre-treated Scots pine twig at 50 mM measured after 24 hr by two-choice laboratory bioassay. The class given is functional.
As to `COC(=O)CCc1ccccc1OC`, the AFI is listed as 97%.

In the case of `COC(=O)CCc1ccccc1` [METHYL 3-PHENYLPROPANOATE], the AFI is listed as 44%.

`CCCOC(=O)/C=C/c1ccccc1` [PROPYL CINNAMATE]: the AFI was found to be 85%.

On to `COC(=O)c1ccc(OC)c(O)c1` [ISOVANILLIC ACID METHYL ESTER], for which the AFI was determined as 65%.

`O=C(O)c1ccccc1O` [SALICYLIC ACID]: the AFI amounted to 21%.

`COC(=O)c1cc(O)cc(OC)c1`: the AFI is given as 54%.

Regarding `COC(=O)/C=C/c1ccc(N(C)C)cc1`, the AFI is 49%.

In the case of `COC(=O)/C=C/c1ccc([N+](=O)[O-])cc1`, the AFI was determined as 32%.

On to `COC(=O)CCc1ccc(C(C)=O)cc1`, for which the AFI came to 14%.

Turning to `COC(=O)c1ccccc1OC` [METHYL 2-METHOXYBENZOATE], the AFI was found to be 80%.

Consider `COC(=O)CCc1ccc(N(C)C)cc1`, for which the AFI stood at 84%.

For the compound `COC(=O)/C=C/c1cc(OC)cc(OC)c1`, the AFI was found to be 72%.

Regarding `COC(=O)c1ccc(OC)cc1OC` [METHYL 2,4-DIMETHOXYBENZOATE], the AFI worked out at 99%.

Regarding `COC(=O)c1cc(O)ccc1OC`, the AFI is -3%.

On to `COC(=O)c1ccc(O)cc1OC` [METHYL 4-HYDROXY-2-METHOXYBENZOATE], for which the AFI is reported as 35%.

For `CCC(C)OC(=O)/C=C/c1ccccc1` (stereo not drawn) [SEC-BUTYL CINNAMATE], the AFI is given as 48%.

For `CCSC(=O)c1cc(OC)cc(OC)c1`, the AFI worked out at 74%.

With `COc1cc(OC)cc(C(=O)OCC(F)(F)F)c1`, the AFI is 86%.

In the case of `COC(=O)CCc1ccc(Cl)cc1`, the AFI is on record as 100%.

In the case of `CC(=O)Oc1cc(C(=O)O)cc(OC(C)=O)c1OC(C)=O` [3,4,5-TRIACETOXYBENZOIC ACID], the AFI is 14%.

On to `COc1ccc(O)c(C(=O)O)c1`, for which the AFI is reported as 17%.

Consider `COC(=O)CCc1cccc(C)c1`, for which the AFI is on record as 90%.

`CCCCCCCCCCCCOC(=O)c1ccc(OC)c(OC)c1` [DODECYL 3,4-DIMETHOXYBENZOATE]: the AFI came to 23%.

Take `COc1ccc(C(=O)OC(C)C)c(OC)c1` [ISOPROPYL 2,4-DIMETHOXYBENZOATE]: the AFI stood at 96%.

With `COC(=O)c1ccc(OC)cc1` [METHYL 4-METHOXYBENZOATE], the AFI amounted to 54%.

With `COc1cc(C(=O)O)ccc1O` [VANILLIC ACID], the AFI was determined as 48%.

On to `COC(=O)c1cc(O)cc(O)c1` [METHYL 3,5-DIHYDROXYBENZOATE], for which the AFI is 23%.

Take `COc1ccccc1CCC(=O)O`: the AFI was found to be 12%.

Take `COC(=O)/C=C/c1ccc(C)cc1`: the AFI worked out at 76%.

Take `COc1cc(OC)cc(C(=O)OCCCc2ccc(OC)c(OC)c2)c1`: the AFI worked out at 41%.

For the compound `COC(=O)c1cc(OC)ccc1O` [METHYL 2-HYDROXY-5-METHOXYBENZOATE], the AFI is on record as 74%.

For `COC(=O)c1c(OC)cccc1OC` [METHYL 2,6-DIMETHOXYBENZOATE], the AFI is 51%.

Turning to `COc1ccc(C(=O)O)cc1O` [ISOVANILLIC ACID], the AFI came to 51%.

Consider `COC(=O)CCc1ccc(F)cc1`, for which the AFI worked out at 98%.

On to `COC(=O)CCc1ccc(O)cc1` [4-HYDROXYHYDROCINNAMIC ACID METHYL ESTER], for which the AFI is on record as 21%.

As to `COC(=O)CCc1ccc(OC)c(OC)c1`, the AFI was 35%.

For the compound `CCCCOc1ccc(CCC(=O)OC)cc1`, the AFI came out at 70%.

With `COC(=O)CCc1cc(OC)cc(OC)c1`, the AFI is recorded as 89%.

`CC(C)OC(=O)c1ccc(O)cc1` [ISOPROPYL 4-HYDROXYBENZOATE]: the AFI was 63%.

For the compound `O=C(O)c1cc(O)cc(O)c1` [3,5-DIHYDROXYBENZOIC ACID], the AFI was found to be 41%.

`CCOC(=O)CC(O)c1ccccc1Br` (racemic): the AFI is given as 59%.

`COC(=O)c1ccc(OC)c(OC)c1OC` [METHYL 2,3,4-TRIMETHOXYBENZOATE]: the AFI was found to be 54%.

Turning to `C=CCc1ccc(OC(=O)c2cc(OC)cc(OC)c2)c(OC)c1`, the AFI is listed as 17%.

For `COC(=O)c1cc(O)c(O)c(O)c1` [GALLIC ACID METHYL ESTER], the AFI turned out to be 21%.

With `COc1cc(C(N)=O)cc(OC)c1OC` [3,4,5-TRIMETHOXYBENZAMIDE], the AFI is -2%.

In the case of `CCOC(=O)CCc1ccccc1` [ETHYL 3-PHENYLPROPANOATE], the AFI amounted to 73%.

Regarding `COC(=O)C(C)Cc1ccccc1` (racemic), the AFI was determined as 79%.

For the compound `COC(=O)c1c(OC)cc(OC)cc1OC` [METHYL 2,4,6-TRIMETHOXYBENZOATE], the AFI is on record as 55%.

In the case of `COC(=O)/C=C/c1ccc(OC)cc1OC`, the AFI is 96%.

With `COC(=O)CCc1ccc(OC)c(Br)c1`, the AFI is reported as 68%.

For `COC(=O)CCc1ccc(O)c(OC)c1` [DIHYDROFERULIC ACID METHYL ESTER], the AFI worked out at 54%.

For `O=C(O)c1ccc2c(c1)OCO2` [PIPERONYLIC ACID], the AFI is on record as 14%.

On to `COC(=O)CCc1ccc(Br)cc1`, for which the AFI is 97%.

As to `COC(=O)c1cc(OC)ccc1OC` [METHYL 2,5-DIMETHOXYBENZOATE], the AFI worked out at 89%.

Consider `COC(=O)CCc1ccc(C)cc1`, for which the AFI turned out to be 99%.

For `COC(=O)/C=C/c1cccc(OC)c1OC`, the AFI was determined as 99%.

Take `COC(=O)c1cccc(OC)c1` [METHYL 3-METHOXYBENZOATE]: the AFI stood at 89%.

Turning to `COc1ccc(C(=O)O)cc1OC` [VERATRIC ACID], the AFI is 7%.

As to `COC(=O)CCc1cccc(OC)c1OC`, the AFI was determined as 86%.

As to `CCOC(=O)C(Br)C(Br)c1ccccc1` (racemic; form 2), the AFI was determined as 45%.

As for `COC(=O)CCc1ccccc1C`, the AFI came to 91%.

On to `CCNC(=O)c1cc(OC)cc(OC)c1`, for which the AFI is recorded as 86%.

For the compound `O=C(O)c1ccc(O)cc1` [PARABEN], the AFI worked out at 31%.

`Cc1ccccc1CCC(=O)O`: the AFI was determined as 47%.

`COC(=O)c1ccc2c(c1)OCO2` [METHYL 3,4-METHYLENEDIOXYBENZOATE]: the AFI is on record as 57%.

On to `COC(=O)c1cccc(OC)c1OC` [METHYL 2,3-DIMETHOXYBENZOATE], for which the AFI is listed as 73%.

For the compound `COC(=O)CCc1ccc(N)cc1`, the AFI is 29%.

With `COC(=O)c1cc(Br)cc(Br)c1` [METHYL 3,5-DIBROMOBENZOATE], the AFI was 50%.

For the compound `COC(=O)CCc1ccc(OC)cc1`, the AFI is recorded as 96%.

Turning to `CC(C)OC(=O)/C=C/c1ccccc1` [ISOPROPYL CINNAMATE], the AFI is 96%.

For the compound `COC(=O)CCc1cccc(OC)c1`, the AFI is recorded as 95%.

Turning to `COC(=O)c1cccc(OC)c1O` [METHYL 2-HYDROXY-3-METHOXYBENZOATE], the AFI stood at 95%.

As for `COC(=O)CCc1ccc(C(F)(F)F)cc1`, the AFI is reported as 57%.

In the case of `COC(=O)CCc1ccc(Cl)c(Cl)c1`, the AFI is 98%.

For `CCCCCCCCc1ccc(C(=O)OC)cc1`, the AFI is 35%.

In the case of `COC(=O)c1cc(C)cc(C)c1` [METHYL 3,5-DIMETHYLBENZOATE], the AFI is reported as 61%.

On to `COC(=O)c1ccc(O)c(OC)c1` [METHYL VANILLATE], for which the AFI was determined as 53%.

For the compound `COC(=O)C(Br)C(Br)c1ccccc1` (racemic), the AFI worked out at 50%.

As for `COC(=O)c1ccc(O)c(O)c1` [METHYL PROTOCATECHUATE], the AFI is -7%.

With `COC(=O)c1cccc(O)c1OC` [METHYL 3-HYDROXY-2-METHOXYBENZOATE], the AFI was determined as 75%.

Take `COC(=O)c1cc(OC)cc(OC)c1` [METHYL 3,5-DIMETHOXYBENZOATE]: the AFI is given as 95%.

On to `COC(=O)c1ccc(O)cc1` [METHYLPARABEN], for which the AFI came to 34%.

In the case of `COC(=O)/C=C/c1ccc(C(F)(F)F)cc1`, the AFI came to 62%.

In the case of `COc1ccc(CCC(=O)OC(C)C)cc1`, the AFI stood at 83%.

With `COC(=O)/C=C/c1ccc(C(C)C)cc1`, the AFI came to 92%.

On to `COC(=O)c1ccc(O)cc1O` [METHYL 2,4-DIHYDROXYBENZOATE], for which the AFI is on record as 46%.

As for `COc1cc(C(=O)O)cc(OC)c1O` [SYRINGIC ACID], the AFI is given as 8%.

As to `COC(=O)CCc1ccc(C)cc1C`, the AFI amounted to 100%.

In the case of `COC(=O)c1cc([N+](=O)[O-])cc([N+](=O)[O-])c1` [METHYL 3,5-DINITROBENZOATE], the AFI is on record as 34%.

In the case of `CCCCOC(=O)/C=C/c1ccccc1` [BUTYL CINNAMATE], the AFI was determined as 38%.

As for `COC(=O)c1c(C)cc(O)c(C)c1O` [ATRARIC ACID], the AFI was determined as 31%.

Regarding `COc1cccc(C(=O)O)c1O`, the AFI was 22%.

For the compound `COc1cc(OC)cc(C(=O)O)c1` [3,5-DIMETHOXYBENZOIC ACID], the AFI is listed as -4%.

For `CCOC(=O)CC(O)c1ccccc1` (racemic), the AFI turned out to be 36%.

Turning to `COc1ccc(C(=O)O)c(O)c1` [4-METHOXYSALICYLIC ACID], the AFI came out at 24%.

As for `CCOC(=O)C(Br)C(Br)c1ccccc1` (racemic; form 1), the AFI was determined as 75%.

Take `COC(=O)CCc1cc(OC)c(OC)c(OC)c1`: the AFI stood at 26%.

With `CC/C=C/CCOC(=O)c1cc(OC)cc(OC)c1`, the AFI worked out at 62%.

With `COC(=O)c1ccc(OC)c(Cl)c1` [METHYL 3-CHLORO-4-METHOXYBENZOATE], the AFI was 36%.

On to `COC(=O)CCc1ccc(C(C)C)cc1`, for which the AFI amounted to 94%.

As to `COC(=O)c1c(O)cccc1OC` [METHYL 2-HYDROXY-6-METHOXYBENZOATE], the AFI came out at 74%.

Regarding `COC(=O)/C=C/c1ccc(OC)c(OC)c1`, the AFI is 36%.

Turning to `CCOC(=O)/C=C/c1ccccc1` [ETHYL CINNAMATE], the AFI is recorded as 83%.
